Patent US8203033B2, “Methods and compositions for providing tolerance to multiple herbicides” (Pioneer Hi-Bred International, Inc., priority 2005, dated 2012)

Legend:
Type in all cases: in vivo
[1] = system: parent elite stiff stalk inbred corn; assay: Preemergence test of ALS herbicides on corn (fresh weight, visual injury); conditions: 200 g/ha, mean of four replications; for Fresh Weight: fresh shoots weighed 4 weeks after treatment; for % Visual Injury: 0% no injury, 100% plant death
[2] = system: Heterozygous GAT-HRA corn; assay: as above; conditions: 200 g/ha, mean of four replications; for Fresh Weight: fresh shoots weighed 4 weeks after treatment; for % Visual Injury: 0% no injury, 100% plant death
[3] = system: parent elite stiff stalk inbred corn; assay: Postemergence test of herbicides on corn (fresh weight, visual injury)
[4] = system: Heterozygous GAT-HRA corn; assay: as above; conditions: for Fresh Weight: fresh shoots weighed 2 weeks after treatment
[5] = system: GAT-HRA maize; assay: Evaluation of herbicide tolerance, spray at V2 stage; conditions: postemergence; tribenuron, chlorimuron, imazapyr 200 g ai/ha; metsulfuron-methyl 35 g ai/ha
Protocol: GAT-HRA maize plants were evaluated for tolerance to glyphosate and other herbicides. One protocol used in this evaluation was as follows. At the V2 stage (Ritchie and Hanway (1982), “How a corn plant develops” Spec. Rep. 48. (Coop. Ext. Ser., Iowa State Univ., Ames, Iowa)), plant heights were measured and herbicides were applied by spray application. Ten to fourteen days after the spray application, the transgenic plants were evaluated for injury symptoms and measured for plant height again in order to determine plant growth rates.
Plants were then evaluated at various times after treatment, such as 10 or 14 days after treatment. […] Leaf samples were taken from GAT-HRA plants and used in quantitative PCR analysis and other analyses to determine the number and arrangement of copies of the GAT and HRA polynucleotides that had been integrated into the plant genome.
Other protocols for evaluation included treatment with imidazolinone herbicides, such as the commercial herbicide Lightning® (a combination of imazapyr and imazethapyr), which was applied to GAT-HRA maize at the V2 leaf stage at four times the field label rate (250 g ai/ha). […] Another protocol for evaluation included treatment with imidazolinone herbicides as well as sulfonylurea and glyphosate herbicides. In these tests, GAT-HRA maize was treated with various combinations of Lightning® (imazapyr and imazethapyr), Basis® (rimsulfuron and thifensulfuron-methyl) and WeatherMAX® (glyphosate potassium salt). These herbicides were applied at the V2 stage as follows: Lightning® at twice the field label rate (1.8 oz ai/ac (133 ml ai/ha)), Basis® at twice the field label rate (0.5 oz ai/ac (36.9 ml ai/ha)) and WeatherMax® at four times the field label rate (43 oz ai/ac). Fourteen days after the treatment application, the plants were evaluated. […] “Field label rate” refers to the application rate specified on the product label. Where the application rate for a particular situation is a range of rates, as used herein, the term “field label rate” indicates the upper end of that range. […]

[6] = system: control maize; assay: as above; conditions: postemergence; tribenuron, chlorimuron, imazapyr 200 g ai/ha; metsulfuron-methyl 35 g ai/ha
[7] = system: Hairy Fleabane (Conyza bonariensis); assay: Glyphosate, metsulfuron-methyl and two additives on the control of hairy fleabane
Protocol: This example included the same treatments as used in Example 11, except the treatments were carried out on a glyphosate sensitive biotype of Kleinskraalhans (Conyza bonariensis).

[8] = 200 g/ha, 0% no injury, 100% plant death, mean of four replications
[9] = 200 g/ha, fresh shoots weighed 2 weeks after treatment, mean of four replications
[10] = 200 g/ha, mean of four replications

| Compound | Fresh Weight [1] [g] | Fresh Weight [2] [g] | % Visual Injury [3, 8] [%] | Fresh Weight [3, 9] [g] | % Visual Injury [4, 8] [%] | Fresh Weight [4, 10] [g] | % Visual Injury [1] [%] | % Visual Injury [2] [%] | further results |
| --- | --- | --- | --- | --- | --- | --- | --- | --- | --- |
| CCOc1nc(F)cc2nc(S(=O)(=O)Nc3c(Cl)cccc3C(=O)OC)nn12 [Chloransulam-methyl, methyl 3-chloro-2-[[(5-ethoxy-7-fluoro-[1,2,4]triazolo[1,5-c]pyrimidin-2-yl)sulfonyl]amino]benzoate] | 5.5 | 44.9 | 96 | 6.8 | 3 | 104.4 |  |  |  |
| CCOC(=O)c1ccccc1S(=O)(=O)NC(=O)Nc1nc(Cl)cc(OC)n1 [Chlorimuron-ethyl, ethyl 2-[[[[(4-chloro-6-methoxy-2-pyrimidinyl)amino]carbonyl]amino]sulfonyl]-benzoate] | 9.3 |  | 93 |  | 15 |  | 100 | 10 | damage from the treatment [5]: no significant damage; damage from the treatment [6]: severely damaged or killed |
| CCOc1nc(NC)nc(NC(=O)NS(=O)(=O)c2ccccc2C(=O)OC)n1 [Ethametsulfuron-methyl, methyl 2-[[[[[4-ethoxy-6-(methylamino)-1,3,5-triazin-2-yl]amino]carbonyl]amino]sulfonyl]benzoate] | 1.6 |  | 96 | 5.6 | 6 | 98.0 | 100 | 88 |  |
| COc1nn(C(=O)NS(=O)(=O)c2ccccc2OC(F)(F)F)c(=O)n1C [Flucarbazone Na^+, 4,5-dihydro-3-methoxy-4-methyl-5-oxo-N-[[2-(trifluoromethoxy)phenyl]sulfonyl]-1H-1,2,4-triazole-1-carboxamide] | 0.0 | 48.8 | 100 | 3.1 | 14 | 86.0 | 100 | 40 |  |
| COC(=O)c1ccc(C(F)(F)F)nc1S(=O)(=O)NC(=O)Nc1nc(OC)cc(OC)n1 [Flupyrsulfuron-methyl Na^+, methyl 2-[[[[(4,6-dimethoxy-2-pyrimidinyl)amino]carbonyl]amino]sulfonyl]-6-(trifluoromethyl)-3-pyridinecarboxylate] | 23.6 | 45.8 | 95 | 5.2 | 4 | 95.5 | 87 | 90 |  |
| CP(=O)(O)CCC(N)C(=O)O (stereo not drawn) [Glufosinate ammonium] |  |  |  |  |  |  |  |  | % Visual Injury ([3]; 1870 g/ha): 99%; Fresh Weight ([3]; 1870 g/ha, 2 weeks after treatment): 2.4 g; % Visual Injury ([4]; 1870 g/ha): 1% |
| COC(=O)c1c(Cl)nn(C)c1S(=O)(=O)NC(=O)Nc1nc(OC)cc(OC)n1 [Halosulfuron-methyl, methyl 3-chloro-5-[[[[(4,6-dimethoxy-2-pyrimidinyl)amino]-carbonyl]amino]sulfonyl]-1-methyl-1H-pyrazole-4-carboxylate] |  |  | 14 |  | 8 |  | 30 | 15 |  |
| CC(C)C1(C)N=C(c2ncccc2C(=O)O)NC1=O (stereo not drawn) [Imazapyr] |  |  |  |  |  |  |  |  | damage from the treatment [5]: no significant damage; damage from the treatment [6]: severely damaged or killed |
| COC(=O)c1ccc(I)cc1S(=O)(=O)NC(=O)Nc1nc(C)nc(OC)n1 [Iodosulfuron-methyl Na^+, methyl 4-iodo-2-[[[[(4-methoxy-6-methyl-1,3,5-triazin-2-yl)amino]carbonyl]amino]sulfonyl]benzoate] | 24.4 | 52.5 | 100 | 3.5 | 1 | 95.0 | 92 | 5 |  |
| COC(=O)c1ccccc1S(=O)(=O)NC(=O)Nc1nc(C)nc(OC)n1 [Metsulfuron-methyl (BRUSH-OFF ®)] |  |  |  |  |  |  |  |  | Control (%) ([7]; Trial 2: metsulfuron-methyl (BRUSH-OFF) 5 g/ha): 100%; Control (%) ([7]; Trial 3: metsulfuron-methyl (BRUSH-OFF) 10 g/ha): 100% |
| CCCOc1nn(C(=O)NS(=O)(=O)c2ccccc2C(=O)OC)c(=O)n1C [Propoxycarbazone Na^+, methyl 2-[[[(4,5-dihydro-4-methyl-5-oxo-3-propoxy-1H-1,2,4-triazol-1-yl)carbonyl]amino]sulfonyl]benzoate] | 0.6 | 46.7 | 100 | 1.9 | 9 | 101.2 | 100 | 100 |  |
| CO/N=C(/C)c1cccc(Oc2nc(OC)cc(OC)n2)c1C(=O)OC [Pyriminobac-methyl] |  |  | 93 | 7.6 | 4 |  | 83 | 20 |  |
| COc1cc(OC)nc(Sc2cccc(Cl)c2C(=O)[O-])n1.[Na+] [Pyrithiobac Na^+, Pyrithiobac] | 0.0 | 48.6 |  | 2.8 |  | 87.9 |  |  |  |
| COC(=O)c1ccccc1S(=O)(=O)NC(=O)Nc1nc(C)cc(C)n1 [Sulfometuron-methyl, methyl 2-[[[[(4,6-dimethyl-2-pyrimidinyl)amino]carbonyl]amino]sulfonyl]-benzoate] | 0.0 |  | 100 | 2.0 | 2 |  | 100 | 6 |  |
| COc1cc(OC)nc(NC(=O)NS(=O)(=O)c2ncccc2OCC(F)(F)F)n1 [Trifloxysulfuron Na^+, N-[[(4,6-dimethoxy-2-pyrimidinyl)amino]-carbonyl]-3-(2,2,2-trifluoroethoxy)-2-pyridinesulfonamide] | 0.0 |  | 100 | 1.0 | 29 |  | 100 | 0 |  |
| COC(=O)c1cccc(C)c1S(=O)(=O)NC(=O)Nc1nc(OCC(F)(F)F)nc(N(C)C)n1 [Triflusulfuron-methyl] |  |  |  | 2.1 |  |  |  |  |  |
| O=C(O)CNCP(=O)(O)O [glyphosate (ROUNDUP ®)] |  |  |  |  |  |  |  |  | Control (%) ([7]; Trial 1: glyphosate (ROUNDUP) 0.5 L/ha): 12% |
| Imazamethabenz-methyl |  |  |  |  |  | 95.0 |  |  |  |
